Measurements published in US20070208003A1, “COMPOUNDS AND METHODS FOR TREATING DYSLIPIDEMIA” (priority 2004, published 2007).

Test system: transgenic mice that express both human CETP and human apolipoprotein A-1
Test: Assay of plasma lipids in vivo: elevation of HDL cholesterol
Details: single oral dose 30 mg/kg; at 8 hr; serum HDL cholesterol relative to control; transgenic mice expressing human CETP and human apolipoprotein A-1
Procedure: Assay of Plasma Lipids In Vivo.
Activity of compounds of this invention in vivo can be determined by the level of elevation of HDL cholesterol relative to control by a given amount of compound in a CETP-containing animal species. A strain of transgenic mice that express both human CETP and human apolipoprotein A-1 (Taconic, Germantown, N.Y.) is used to test compounds of this invention. Test compounds are administered once orally in selected aqueous or oil based vehicles. At various times after dosing, ranging from 4 h to 24 h, blood is obtained. Blood is allowed to clot and serum is obtained by centrifugation. HDL cholesterol levels in the serum is determined by HDL-C plus reagents (Roche/Hitachi, Indianapolis, Ind.) with a clinical chemistry analyzer (Roche/Hitachi, Indianapolis, Ind.). Additional serum lipids can be analyzed by enzymatic methods. Lipids in the VLDL, LDL and HDL fractions are analyzed by enzymatic methods after precipitation or size exclusion chromatography.

With `Cc1nc2c(cc1C(F)(F)F)N(C(=O)OC(C)C)CCCC2N(Cc1cc(C(F)(F)F)cc(C(F)(F)F)c1)c1nnn(C)n1` (racemic) [Example 14] the “% HDL cholesterol increase” value was 91%.
